Values of other authors, collected in patent publication US7452892B2, “Triazolopyrimidine cannabinoid receptor 1 antagonists” (Bristol-Myers Squibb Company, priority 2005, dated 2008).

Experiments:
[1] = 16 week trial period
[2] = chronic administration for two weeks

Row | SMILES | body weight in human subjects [1] | body weight [2]
1 | Cc1c(C(=O)NN2CCCCC2)nn(-c2ccc(Cl)cc2Cl)c1-c1ccc(Cl)cc1 [SR-141716] | dose-dependently reduced body weight | 
2 | Cc1c(C(=O)NN2CCCCC2)nn(-c2ccc(Cl)cc2Cl)c1-c1ccc(I)cc1 [AM-251] |  | substantial body weight reduction
